Biological target: T1, human CXCR6 (Homo sapiens, UniProt O00574)
T1 construct: expressed in transfected cells
Experiment: Radioligand Binding Assay (125I-CXCL16 displacement)
Conditions: L1.2 cells stably transfected with human CXCR6 cDNA, 0.1 nM 125I-CXCL16, 4° C., three-hour incubation; read-out: Potency (IC50)
Summary of the method: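 Displacement of 0.1 nM 125I-CXCL16 from human CXCR6 stably expressed in L1.2 cells was measured after a 3 h, 4 °C incubation in HBSS with 0.1% BSA. Filter-bound cpm were counted, and IC50 values came from a 3-parameter nonlinear fit.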

T1 sequence (O00574 whole entry): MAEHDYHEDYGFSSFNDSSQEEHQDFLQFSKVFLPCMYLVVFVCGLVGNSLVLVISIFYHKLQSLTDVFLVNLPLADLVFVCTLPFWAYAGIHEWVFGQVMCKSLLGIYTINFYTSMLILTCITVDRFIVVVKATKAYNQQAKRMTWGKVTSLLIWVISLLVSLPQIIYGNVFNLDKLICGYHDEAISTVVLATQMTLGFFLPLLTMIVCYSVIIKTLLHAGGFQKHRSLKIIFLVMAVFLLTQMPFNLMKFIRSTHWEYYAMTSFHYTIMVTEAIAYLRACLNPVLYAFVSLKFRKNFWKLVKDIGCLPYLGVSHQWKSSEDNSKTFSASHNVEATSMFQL

Compound | IC50
CCOc1cc(NC(=O)[C@@H](CO)c2ccccc2)ccc1S(=O)(=O)Nc1cccc(OC(F)(F)F)c1C [Example 1.274] | 2 to 20 µM
CCOc1cc(NC(=O)[C@H]2CC=CC[C@H]2C(=O)O)ccc1S(=O)(=O)Nc1ccc(C)c(OC(F)(F)F)c1 (racemic) [Example 1.333] | 0.75 to 2 µM
COc1cc(NC(=O)CC2CCCCCC2)ccc1S(=O)(=O)Nc1cccc(C(F)(F)F)c1 [Example 1.419] | 2 to 20 µM
Cc1cc(NC(=O)c2cccn2C)ccc1S(=O)(=O)Nc1cccc(C(F)(F)F)c1 [Example 1.486] | 0.75 to 2 µM
Cc1cc(NC(=O)c2ccccc2F)ccc1S(=O)(=O)Nc1cccc(C(F)(F)F)c1 [Example 1.070] | 2 to 20 µM
COc1cc(NC(=O)[C@@H]2CCC[C@H]2N)ccc1S(=O)(=O)Nc1cccc(C(F)(F)F)c1 [Example 1.392] | 2 to 20 µM
COc1ccccc1C(=O)Nc1ccc(S(=O)(=O)Nc2cccc(C(F)(F)F)c2)c(OC)c1 [Example 1.294] | 2 to 20 µM
COCC(=O)Nc1ccc(S(=O)(=O)Nc2cccc(C(F)(F)F)c2)c(C)c1 [Example 1.544] | 2 to 20 µM
CC(=O)Nc1cc(C)c(S(=O)(=O)Nc2cccc(C(F)(F)F)c2)c(F)c1 [Example 1.451] | 2 to 20 µM
CCOc1cc(NC(=O)C(CO)CC2CCOCC2)ccc1S(=O)(=O)Nc1cccc(OC(F)(F)F)c1 (stereo not shown) [Example 1.309] | 0.2 to 0.75 µM
Cc1cc(NC(=O)c2ccnn2C)cc(F)c1S(=O)(=O)Nc1cccc(OC(F)(F)F)c1 [Example 1.502] | 0.2 to 0.75 µM
CCOc1cc(NC(=O)C2COC[C@H]2O)ccc1S(=O)(=O)Nc1cccc(OC(F)(F)F)c1 (mixture of isomers) [Example 1.518] | 0.2 to 0.75 µM
COc1cc(NC(=O)c2ccnn2C)ccc1S(=O)(=O)Nc1cccc(C#N)c1 [Example 1.331] | 2 to 20 µM
CCOCCOCCC(C(=O)O)C(=O)Nc1ccc(S(=O)(=O)Nc2cccc(OC(F)(F)F)c2)c(OCC)c1 (stereo not shown) [Example 1.476] | 0.2 to 0.75 µM
CCOc1cc(NC(=O)[C@@H](O)C(C)C)ccc1S(=O)(=O)Nc1cccc(Cl)c1Cl [Example 1.555] | 2 to 20 µM
CCOc1cc(NC(=O)[C@@H](CO)C(C)C)ccc1S(=O)(=O)Nc1cccc(Cl)c1C(F)(F)F [Example 1.159] | 2 to 20 µM
CCOc1cc(NC(=O)C2CC3C=CC2O3)ccc1S(=O)(=O)Nc1cccc(OC(F)(F)F)c1 (stereo not shown) [Example 1.046] | 0.2 to 0.75 µM
COc1cc(NC(=O)C2=CCCCC2)ccc1S(=O)(=O)Nc1cccc(OC(F)(F)F)c1 [Example 1.090] | 0.75 to 2 µM
CCOc1cc(NC(=O)[C@@H](CO)c2ccccc2)ccc1S(=O)(=O)Nc1ccc(C)c(F)c1 [Example 1.184] | 0.75 to 2 µM

Compound | IC50
COc1cc(NC(=O)c2cc(C(F)(F)F)nn2C)ccc1S(=O)(=O)Nc1cccc(C(F)(F)F)c1 [Example 1.430] | 0.75 to 2 µM
CCOc1cc(NC(=O)C2(O)CCCCC2)ccc1S(=O)(=O)Nc1cccc(OC(F)(F)F)c1 [Example 1.083] | 0.75 to 2 µM
COc1cc(NC(=O)[C@@H]2CCC[C@H](OC)C2)ccc1S(=O)(=O)Nc1cccc(C(F)(F)F)c1 [Example 1.561] | 2 to 20 µM
COc1cc(NC(=O)c2ccnn2C)ccc1S(=O)(=O)Nc1cccc(Cl)c1 [Example 1.202] | 2 to 20 µM
CCOc1cc(NC(=O)[C@@H](CO)C(C)C)ccc1S(=O)(=O)Nc1cccc(Cl)c1C [Example 1.540] | 0.2 to 0.75 µM
CC(C)[C@H](O)C(=O)Nc1ccc(S(=O)(=O)Nc2cccc(OC(F)(F)F)c2)c(OC(F)(F)F)c1 [Example 1.134] | 0.2 to 0.75 µM
COc1cc(NC(=O)[C@H]2CCCNC2)ccc1S(=O)(=O)Nc1cccc(C(F)(F)F)c1 [Example 1.323] | 2 to 20 µM
CCOc1cc(NC(=O)C(=O)c2ccccc2)ccc1S(=O)(=O)Nc1cccc(OC(F)(F)F)c1 [Example 1.023] | 0.2 to 0.75 µM
Cc1cc(NC(=O)C2CCN(C(=O)OC(C)(C)C)CC2)ccc1S(=O)(=O)Nc1cccc(C(F)(F)F)c1 [Example 1.365] | 2 to 20 µM
CCOc1cc(NC(=O)[C@H]2CCCC[C@@H]2OC)ccc1S(=O)(=O)Nc1cccc(OC(F)(F)F)c1 [Example 1.307] | 0.2 to 0.75 µM
CCOc1cc(NC(=O)[C@H]2CC=CC[C@H]2O)ccc1S(=O)(=O)Nc1cccc(OC(F)(F)F)c1 [Example 1.173] | 0.2 to 0.75 µM
COc1cc(NC(=O)CC2CCCO2)ccc1S(=O)(=O)Nc1cccc(C(F)(F)F)c1 (stereo not shown) [Example 1.189] | 2 to 20 µM
Cc1cc(NC(=O)c2c(Br)cnn2C)ccc1S(=O)(=O)Nc1cccc(C(F)(F)F)c1 [Example 1.284] | 2 to 20 µM
CCOc1cc(NC(=O)C2(COC)CC2)ccc1S(=O)(=O)Nc1cccc(OC(F)(F)F)c1 [Example 1.302] | 0.75 to 2 µM
COc1cc(NC(=O)C2CCOC2)ccc1S(=O)(=O)Nc1cccc(OC(F)(F)F)c1 (stereo not shown) [Example 1.042] | 0.75 to 2 µM
COc1cc(NC(=O)c2ccnn2C)ccc1S(=O)(=O)Nc1ccc(C#N)c(OC(F)(F)F)c1 [Example 1.015] | 0.75 to 2 µM
CCOc1cc(NC(=O)C2CCNC(=O)C2)ccc1S(=O)(=O)Nc1cccc(OC(F)(F)F)c1 (stereo not shown) [Example 1.475] | 2 to 20 µM
COc1cc(NC(=O)[C@@H]2CCCC[C@H]2O)ccc1S(=O)(=O)Nc1cccc(OC(F)(F)F)c1 [Example 1.049] | 0.75 to 2 µM

Other lines, results leading:

IC50 | Compound
0.2 to 0.75 µM | CCOc1cc(NC(=O)C(O)c2ccc(C)cc2)ccc1S(=O)(=O)Nc1cccc(OC(F)(F)F)c1 (stereo not shown) [Example 1.466]
≤ 0.2 µM | CCOc1cc(NC(=O)[C@@H](NC=O)C(C)C)ccc1S(=O)(=O)Nc1cccc(OC(F)(F)F)c1 [Example 1.298]
≤ 0.2 µM | CCOc1cc(NC(=O)[C@H](N)C(C)C)ccc1S(=O)(=O)Nc1cccc(OC(F)(F)F)c1 [Example 1.158]
≤ 0.2 µM | CCOc1cc(NC(=O)[C@@H](O)c2ccccc2)ccc1S(=O)(=O)Nc1ccc(F)c(OC(F)(F)F)c1 [Example 1.220]
0.2 to 0.75 µM | Cc1cc(NC(=O)c2cnoc2C)ccc1S(=O)(=O)Nc1cccc(C(F)(F)F)c1 [Example 1.255]
≤ 0.2 µM | COc1cc(NC(=O)C(O)C(C)C)ccc1S(=O)(=O)Nc1cccc(C(F)(F)F)c1 (stereo not shown) [Example 1.535]
≤ 0.2 µM | CCOc1cc(NC(=O)c2ccccc2)ccc1S(=O)(=O)Nc1cccc(OC(F)(F)F)c1 [Example 1.073]
0.2 to 0.75 µM | COc1cc(NC(=O)C2CC3C=CC2O3)ccc1S(=O)(=O)Nc1cccc(C(F)(F)F)c1 (stereo not shown) [Example 1.565]
≤ 0.2 µM | COc1cc(NC(=O)[C@@H](O)c2ccccc2)ccc1S(=O)(=O)Nc1cccc(OC(F)(F)F)c1 [Example 1.129]
≤ 0.2 µM | COc1cc(NC(=O)[C@@H](O)C(C)C)ccc1S(=O)(=O)Nc1ccc(C)c(OC(F)(F)F)c1 [Example 1.557]
≤ 0.2 µM | CCOc1cc(NC(=O)[C@@H](NC(C)=O)C(C)C)ccc1S(=O)(=O)Nc1cccc(OC(F)(F)F)c1 [Example 1.415]
≤ 0.2 µM | CCOc1cc(NC(=O)[C@@H](O)C(C)C)ccc1S(=O)(=O)Nc1ccc(Cl)c(Cl)c1 [Example 1.375]
≤ 0.2 µM | C=C(C)CC(C(=O)O)C(=O)Nc1ccc(S(=O)(=O)Nc2cccc(OC(F)(F)F)c2)c(OCC)c1 (stereo not shown) [Example 1.176]
≤ 0.2 µM | CC(=O)N[C@H](C(=O)Nc1ccc(S(=O)(=O)Nc2cccc(OC(F)(F)F)c2)c(C)c1)c1ccccc1 [Example 1.481]
≤ 0.2 µM | CCc1cc(NC(=O)[C@@H](CO)c2ccccc2)ccc1S(=O)(=O)Nc1cccc(OC(F)(F)F)c1 [Example 1.163]
≤ 0.2 µM | CCOc1cc(NC(=O)c2ccc(N)nc2)ccc1S(=O)(=O)Nc1cccc(OC(F)(F)F)c1 [Example 1.326]
≤ 0.2 µM | CCCc1cc(NC(=O)[C@@H](CO)C2CC2)ccc1S(=O)(=O)Nc1cccc(OC(F)(F)F)c1 [Example 1.099]

IC50 | Compound
≤ 0.2 µM | CCOc1cc(NC(=O)C(O)c2c(F)cccc2F)ccc1S(=O)(=O)Nc1cccc(OC(F)(F)F)c1 (stereo not shown) [Example 1.511]
≤ 0.2 µM | CCCOc1cc(NC(=O)[C@@H](CO)c2ccccc2)ccc1S(=O)(=O)Nc1cccc(CC(F)(F)F)c1 [Example 1.496]
≤ 0.2 µM | CCOc1cc(NC(=O)[C@@H](O)C2CCCCC2)ccc1S(=O)(=O)Nc1cccc(OC(F)(F)F)c1 [Example 1.345]
≤ 0.2 µM | CCOc1cc(NC(=O)C(CO)C2CCOC2)ccc1S(=O)(=O)Nc1cccc(OC(F)(F)F)c1 (stereo not shown) [Example 1.199]
≤ 0.2 µM | CCOc1cc(NC(=O)[C@H]2CCOC[C@H]2C)ccc1S(=O)(=O)Nc1cccc(OC(F)(F)F)c1 (racemic) [Example 1.514]
≤ 0.2 µM | COc1cc(NC(=O)c2ccnn2C)ccc1S(=O)(=O)Nc1ccc(Cl)c(OC(F)(F)F)c1 [Example 1.469]
≤ 0.2 µM | CCOc1cc(NC(=O)c2cccnc2C)ccc1S(=O)(=O)Nc1cccc(OC(F)(F)F)c1 [Example 1.200]
≤ 0.2 µM | CCOc1cc(NC(=O)[C@@H](N)c2ccccc2)ccc1S(=O)(=O)Nc1ccc(C)c(OC(F)(F)F)c1 [Example 1.462]
≤ 0.2 µM | CCOc1cc(NC(=O)[C@@H](CO)C(C)C)ccc1S(=O)(=O)Nc1cccc(OC(F)(F)F)c1 [Example 1.022]
≤ 0.2 µM | CCOc1cc(NC(=O)[C@@H](O)C(C)C)ccc1S(=O)(=O)Nc1cccc(C(F)(F)F)c1 [Example 1.088]
≤ 0.2 µM | CCOc1cc(NC(=O)[C@@H](NC(C)=O)C(C)C)ccc1S(=O)(=O)Nc1ccc(C)c(OC(F)(F)F)c1 [Example 1.275]
≤ 0.2 µM | CCOc1cc(NC(=O)[C@@H](O)C(C)C)ccc1S(=O)(=O)Nc1cccc(C(C)(F)F)c1 [Example 1.261]
≤ 0.2 µM | CCOc1cc(NC(=O)[C@@H](N)C(C)O)ccc1S(=O)(=O)Nc1cccc(OC(F)(F)F)c1 (stereo partly shown) [Example 1.032]
≤ 0.2 µM | O=C(Nc1ccc(S(=O)(=O)Nc2cccc(OC(F)(F)F)c2)c(Cl)c1)[C@@H](CO)c1ccccc1 [Example 1.196]
≤ 0.2 µM | CCOc1cc(NC(=O)[C@@H](N)c2ccccc2)ccc1S(=O)(=O)Nc1ccc(F)c(OC(F)(F)F)c1 [Example 1.560]
≤ 0.2 µM | CCOc1cc(NC(=O)[C@H]2CCOC[C@H]2COC)ccc1S(=O)(=O)Nc1cccc(OC(F)(F)F)c1 [Example 1.499]

— patent US20230339851A1, “CXCR6 SULFONAMIDE COMPOUNDS” (CHEMOCENTRYX, INC., priority 2022, published 2023)
